From patent US20230391763A1, “MODULATORS OF THE INTEGRATED STRESS RESPONSE PATHWAY” (Evotec International GmbH, priority 2020, published 2023)

Test system: Tunicamycin induced ISR (ATF4 signal ratio between nucleus and cytoplasm) in wild-type HEK293 cells
Experiment: HEK-ATF4 High Content Imaging assay
Type: cell-based
Settings: Homo sapiens, prevention of Tunicamycin induced ISR, 6 h incubation, ATF4 immunofluorescence nucleus/cytoplasm ratio
Protocol: HEK-ATF4 High Content Imaging Assay
Example compounds were tested in the HEK-ATF4 High Content Imaging assay to assess their pharmacological potency to prevent Tunicamycin induced ISR. Wild-type HEK293 cells were plated in 384-well imaging assay plates at a density of 12,000 cells per well in growth medium (containing DMEM/F12, 10% FBS, 2 mM L-Glutamine, 100 U/mL Penicillin—100 μg/mL Streptomycin) and incubated at 37° C., 5% CO2. 24 h later, the medium was changed to 50 μL assay medium per well (DMEM/F12, 0.3% FBS, 2 mM L-Glutamine, 100 U/mL Penicillin—100 μg/mL Streptomycin). Example compounds were serially diluted in DMSO, spotted into intermediate plates and prediluted with assay medium containing 3.3 μM Tunicamycin to give an 11-fold excess of final assay concentration. In addition to the example compound testing area, the plates also contained multiples of control wells for assay normalization purposes, wells containing Tunicamycin but no example compounds (High control), as well as wells containing neither example compound nor Tunicamycin (Low control). The assay was started by transferring 5 μL from the intermediate plate into the assay plates, followed by incubation for 6 h at 37° C., 5% CO2. Subsequently, cells were fixed (4% PFA in PBS, 20 min at r.t.) and submitted to indirect ATF4 immunofluorescence staining (primary antibody rabbit anti ATF4, clone D4B8, Cell Signaling Technologies; secondary antibody Alexa Fluor 488 goat anti-rabbit IgG (H+L), Thermofisher Scientific). Nuclei were stained using Hoechst dye (Thermofisher Scientific), and plates were imaged on an Opera Phenix High Content imaging platform equipped with 405 nm and 488 nm excitation. Finally, images were analyzed using script based algorithms. The main readout HEK-ATF4 monitored the ATF4 signal ratio between nucleus and cytoplasm. Tunicamycin induced an increase in the overall ATF4 ratio signal, which was prevented by ISR modulating example compounds. In addition, HEK-CellCount readout was derived from counting the number of stained nuclei corresponding to healthy cells. This readout served as an internal toxicity control.

Row | SMILES | IC50 [nM]
1 | O=C(N[C@H]1CC[C@H](c2nnc(OCCOC(F)(F)F)o2)NC1)c1ccc2cc(C(F)(F)F)ccc2n1 [Example 2, N-[(3S,6R)-6-{5-[2-(trifluoromethoxy)ethoxy]-1,3,4-oxadiazol-2-yl}piperidin-3-yl]-6-(trifluoromethyl)quinoline-2-carboxamide] | 1 to 500
2 | O=C(N[C@H]1CC[C@H](c2nnc(OCCOC(F)(F)F)o2)NC1)c1cnc2cc(Cl)ccc2c1 [Example 3, 7-chloro-N-[(3S,6R)-6-{5-[2-(trifluoromethoxy)ethoxy]-1,3,4-oxadiazol-2-yl}piperidin-3-yl]quinoline-3-carboxamide] | 1 to 500
3 | O=C(N[C@H]1CC[C@H](c2nnc(OCCOC(F)(F)F)o2)NC1)C1=Cc2ccc(Cl)cc2OC1 [Example 4, 7-chloro-N-[(3S,6R)-6-{5-[2-(trifluoromethoxy)ethoxy]-1,3,4-oxadiazol-2-yl}piperidin-3-yl]-2H-chromene-3-carboxamide] | 1 to 500
4 | O=C(N[C@H]1CC[C@H](c2nnc(OCCOC(F)(F)F)o2)NC1)c1cc2ccc(Cl)cc2cn1 [Example 5, 7-chloro-N-[(3S,6R)-6-{5-[2-(trifluoromethoxy)ethoxy]-1,3,4-oxadiazol-2-yl}piperidin-3-yl]isoquinoline-3-carboxamide] | 500 to 2000
5 | O=C(N[C@H]1CC[C@H](c2nnc(OCCOC(F)(F)F)o2)NC1)c1ncc2cc(Cl)ccc2n1 [Example 6, 6-chloro-N-[(3S,6R)-6-{5-[2-(trifluoromethoxy)ethoxy]-1,3,4-oxadiazol-2-yl}piperidin-3-yl]quinazoline-2-carboxamide] | 1 to 500
6 | O=C(N[C@H]1CC[C@H](c2nnc(OCCOC(F)(F)F)o2)NC1)c1cnc2ccc(Cl)cc2c1 [Example 8, 6-chloro-N-[(3S,6R)-6-{5-[2-(trifluoromethoxy)ethoxy]-1,3,4-oxadiazol-2-yl}piperidin-3-yl]quinoline-3-carboxamide] | 1 to 500
7 | O=C(N[C@H]1CC[C@H](c2nnc(OCCOC(F)(F)F)o2)NC1)c1cc2cc(Cl)ccc2o1 [Example 9, 5-chloro-N-[(3S,6R)-6-{5-[2-(trifluoromethoxy)ethoxy]-1,3,4-oxadiazol-2-yl}piperidin-3-yl]-1-benzofuran-2-carboxamide] | 1 to 500
8 | O=C(N[C@H]1CC[C@H](c2nnc(OCCOC(F)(F)F)o2)NC1)c1ccc2cc(Cl)cnc2c1 [Example 10, 3-chloro-N-[(3S,6R)-6-{5-[2-(trifluoromethoxy)ethoxy]-1,3,4-oxadiazol-2-yl}piperidin-3-yl]quinoline-7-carboxamide] | 500 to 2000
9 | O=C(N[C@H]1CC[C@H](c2nnc(OCCOC(F)(F)F)o2)NC1)c1cnc2cc(Cl)c(F)cc2c1 [Example 11, 7-chloro-6-fluoro-N-[(3S,6R)-6-{5-[2-(trifluoromethoxy)ethoxy]-1,3,4-oxadiazol-2-yl}piperidin-3-yl]quinoline-3-carboxamide] | 1 to 500
10 | O=C(N[C@H]1CC[C@H](c2nnc(OCCOC(F)(F)F)o2)NC1)c1cc2cc(Cl)ccn2n1 [Example 12, 5-chloro-N-[(3S,6R)-6-{5-[2-(trifluoromethoxy)ethoxy]-1,3,4-oxadiazol-2-yl}piperidin-3-yl]pyrazolo[1,5-a]pyridine-2-carboxamide] | 500 to 2000
11 | O=C(N[C@H]1CC[C@H](c2nnc(OCCOC(F)(F)F)o2)NC1)c1ccc(OCC(F)(F)F)nc1 [Example 13, 6-(2,2,2-trifluoroethoxy)-N-[(3S,6R)-6-{5-[2-(trifluoromethoxy)ethoxy]-1,3,4-oxadiazol-2-yl}piperidin-3-yl]pyridine-3-carboxamide] | 2000 to 15000
12 | O=C(N[C@H]1CC[C@H](c2nnc(OCCOC(F)(F)F)o2)NC1)c1ccc2nc(C(F)(F)F)ccc2c1 [Example 14, N-[(3S,6R)-6-{5-[2-(trifluoromethoxy)ethoxy]-1,3,4-oxadiazol-2-yl}piperidin-3-yl]-2-(trifluoromethyl)quinoline-6-carboxamide] | 2000 to 15000
13 | O=C(N[C@H]1CC[C@H](c2nnc(OCCOC(F)(F)F)o2)NC1)c1cn2cc(Cl)cc2cn1 [Example 15, 7-chloro-N-[(3S,6R)-6-{5-[2-(trifluoromethoxy)ethoxy]-1,3,4-oxadiazol-2-yl}piperidin-3-yl]pyrrolo[1,2-a]pyrazine-3-carboxamide] | 2000 to 15000
14 | O=C(N[C@H]1CC[C@H](c2nnc(OCCOC(F)(F)F)o2)NC1)c1ccc(OC(F)(F)F)nc1 [Example 16, 6-(trifluoromethoxy)-N-[(3S,6R)-6-{5-[2-(trifluoromethoxy)ethoxy]-1,3,4-oxadiazol-2-yl}piperidin-3-yl]pyridine-3-carboxamide] | 500 to 2000
15 | O=C(N[C@H]1CC[C@H](c2nnc(OCCOC(F)(F)F)o2)NC1)c1ccc(Cl)c(Cl)c1 [Example 17, 3,4-dichloro-N-[(3S,6R)-6-{5-[2-(trifluoromethoxy)ethoxy]-1,3,4-oxadiazol-2-yl}piperidin-3-yl]benzamide] | 500 to 2000
16 | O=C(N[C@H]1CC[C@H](c2nnc(OCCOC(F)(F)F)o2)NC1)c1ccc(Cl)cc1 [Example 18, 4-chloro-N-[(3S,6R)-6-{5-[2-(trifluoromethoxy)ethoxy]-1,3,4-oxadiazol-2-yl}piperidin-3-yl]benzamide] | 2000 to 15000
17 | O=C(N[C@H]1CC[C@H](c2nnc(OCCOC(F)(F)F)o2)NC1)c1cnc2c(F)c(Cl)ccc2c1 [Example 19, 7-chloro-8-fluoro-N-[(3S,6R)-6-{5-[2-(trifluoromethoxy)ethoxy]-1,3,4-oxadiazol-2-yl}piperidin-3-yl]quinoline-3-carboxamide] | 1 to 500
18 | O=C(N[C@H]1CC[C@H](c2nnc(OCCOC(F)(F)F)o2)NC1)c1cc2cc(Cl)ccn2c1 [Example 20, 7-chloro-N-[(3S,6R)-6-{5-[2-(trifluoromethoxy)ethoxy]-1,3,4-oxadiazol-2-yl}piperidin-3-yl]indolizine-2-carboxamide] | 1 to 500
19 | O=C(N[C@H]1CC[C@H](c2nnc(OCCOC(F)(F)F)o2)NC1)c1cc2ccc(Cl)cn2c1 [Example 21, 6-chloro-N-[(3S,6R)-6-{5-[2-(trifluoromethoxy)ethoxy]-1,3,4-oxadiazol-2-yl}piperidin-3-yl]indolizine-2-carboxamide] | 1 to 500
20 | Cn1c(C(=O)N[C@H]2CC[C@H](c3nnc(OCCOC(F)(F)F)o3)NC2)cc2cc(C(F)(F)F)ccc21 [Example 22, 1-methyl-N-[(3S,6R)-6-{5-[2-(trifluoromethoxy)ethoxy]-1,3,4-oxadiazol-2-yl}piperidin-3-yl]-5-(trifluoromethyl)-1H-indole-2-carboxamide] | 500 to 2000
21 | O=C(N[C@H]1CC[C@H](c2nnc(OCCOC(F)(F)F)o2)NC1)c1cccc(Cl)c1 [Example 23, 3-chloro-N-[(3S,6R)-6-{5-[2-(trifluoromethoxy)ethoxy]-1,3,4-oxadiazol-2-yl}piperidin-3-yl]benzamide] | 2000 to 15000
22 | Cc1cc(C)cc(C(=O)N[C@H]2CC[C@H](c3nnc(OCCOC(F)(F)F)o3)NC2)c1 [Example 24, 3,5-dimethyl-N-[(3S,6R)-6-{5-[2-(trifluoromethoxy)ethoxy]-1,3,4-oxadiazol-2-yl}piperidin-3-yl]benzamide] | 2000 to 15000
23 | Cc1ccc(C(=O)N[C@H]2CC[C@H](c3nnc(OCCOC(F)(F)F)o3)NC2)cc1C [Example 25, 3,4-dimethyl-N-[(3S,6R)-6-{5-[2-(trifluoromethoxy)ethoxy]-1,3,4-oxadiazol-2-yl}piperidin-3-yl]benzamide] | 2000 to 15000
24 | Cc1cc(C(=O)N[C@H]2CC[C@H](c3nnc(OCCOC(F)(F)F)o3)NC2)sc1C [Example 26, 4,5-dimethyl-N-[(3S,6R)-6-{5-[2-(trifluoromethoxy)ethoxy]-1,3,4-oxadiazol-2-yl}piperidin-3-yl]thiophene-2-carboxamide] | 2000 to 15000
25 | Cc1ccc(C(=O)N[C@H]2CC[C@H](c3nnc(OCCOC(F)(F)F)o3)NC2)cc1 [Example 27, 4-methyl-N-[(3S,6R)-6-{5-[2-(trifluoromethoxy)ethoxy]-1,3,4-oxadiazol-2-yl}piperidin-3-yl]benzamide] | 2000 to 15000
26 | O=C(N[C@H]1CC[C@H](c2nnc(OCCOC(F)(F)F)o2)NC1)c1ccc(OC(F)(F)F)cc1 [Example 29, 4-(trifluoromethoxy)-N-[(3S,6R)-6-{5-[2-(trifluoromethoxy)ethoxy]-1,3,4-oxadiazol-2-yl}piperidin-3-yl]benzamide] | 1 to 500
27 | O=C(N[C@H]1CC[C@H](c2nnc(OCCOC(F)(F)F)o2)NC1)c1ccc2c(c1)OC(F)(F)O2 [Example 30, 2,2-difluoro-N-[(3S,6R)-6-{5-[2-(trifluoromethoxy)ethoxy]-1,3,4-oxadiazol-2-yl}piperidin-3-yl]-2H-1,3-benzodioxole-5-carboxamide] | 500 to 2000
28 | Cc1cc(C(=O)N[C@H]2CC[C@H](c3nnc(OCCOC(F)(F)F)o3)NC2)ccc1Cl [Example 31, 4-chloro-3-methyl-N-[(3S,6R)-6-{5-[2-(trifluoromethoxy)ethoxy]-1,3,4-oxadiazol-2-yl}piperidin-3-yl]benzamide] | 2000 to 15000
